# Source: patent US11339419B2, “Scavenger protein(s) for improved preservation of analyte detection sensor(s) and method(s) of use thereof” (Siemens Healthcare Diagnostics Inc., priority 2017, dated 2022)
# “And” between values parts separate entries of the source, which are not always exact repeats. Identical values can stand only once.
# Test system: sarcosine oxidase (BBI Solutions)
# Test: BBI Solutions Sarcosine Oxidase Enzyme Absorbance with BSA and MIT
# Format: biochemical
# Conditions: for Sarcosine Oxidase Enzyme Absorbance, MEAN of 7-11 / Sarcosine Oxidase Enzyme Absorbance, replicates 7-11 / Sarcosine Oxidase Enzyme Absorbance, MEAN of 1-5 / Sarcosine Oxidase Enzyme Absorbance, solutions 1-5: 37° C.
# [1] = Day 0, 5 mg/mL BSA only, no MIT (50 ppm MIT row)
# [2] = Day 0, 5 mg/mL BSA only, no MIT (100 ppm MIT row)
# [3] = Day 0, 25 mg/mL BSA only, no MIT (50 ppm MIT row)
# [4] = Day 0, 25 mg/mL BSA only, no MIT (100 ppm MIT row)
# [5] = Day 0, 50 mg/mL BSA only, no MIT (50 ppm MIT row)
# [6] = Day 0, 50 ppm MIT, 25 mg/mL BSA
# [7] = Day 0, 50 ppm MIT, 50 mg/mL BSA
# [8] = Day 0, 100 ppm MIT, 5 mg/mL BSA
# [9] = Day 0, 100 ppm MIT, 25 mg/mL BSA
# [10] = Day 0, 100 ppm MIT, 50 mg/mL BSA
# [11] = Day 4, 50 ppm MIT, 25 mg/mL BSA
# [12] = Day 4, 50 ppm MIT, 50 mg/mL BSA
# [13] = Day 4, 100 ppm MIT, 5 mg/mL BSA
# [14] = Day 4, 100 ppm MIT, 25 mg/mL BSA
# [15] = Day 4, 100 ppm MIT, 50 mg/mL BSA
# [16] = Day 14, 50 ppm MIT, 5 mg/mL BSA
# [17] = Day 14, 50 ppm MIT, 25 mg/mL BSA
# [18] = Day 14, 50 ppm MIT, 50 mg/mL BSA
# [19] = Day 14, 100 ppm MIT, 5 mg/mL BSA
# [20] = Day 14, 100 ppm MIT, 25 mg/mL BSA
# [21] = Day 14, 100 ppm MIT, 50 mg/mL BSA
# Experimental: Tables 1-4 depict aqueous solutions comprising varying concentrations of BSA (at concentrations of 0 mg/mL, 5 mg/mL, 25 mg/mL, and 50 mg/mL), varying concentrations of MIT (at concentrations of 50 parts per million and 100 parts per million) or Proclin™ 300 (at concentrations of 0.7% and 1.4%) biocides over a particular time period (measurements were taken at days 0, 4, and 14 after exposure of the enzyme(s) to the aqueous solutions) and the associated enzyme absorbance measurements for sarcosine oxidase (commercially offered for sale by BBI Solutions and Toyobo). Absorbance measurements of the sarcosine oxidase enzyme(s) were taken via spectrophotometer for each aqueous solution (represented as columns 1-5 in Tables 1-4—column 6 is a blank), the absorbance being directly proportional to the enzyme activity being measured-which for Tables 1-4 is sarcosine oxidase enzyme activity. Accordingly, the higher the absorbance measurement, the higher the enzyme activity of sarcosine oxidase. Columns 7-11 represent five replicate readings in which the aqueous solution only contains BSA (i.e., there is no biocide(s) present in the aqueous solution). In addition, the mean values, standard deviations, and coefficients of variation are also presented for the enzyme activity/absorbance of each aqueous solution. All measurements were taken at 37° C.
# As depicted below in Table 1, sarcosine oxidase (commercially offered for sale by BBI Solutions) enzyme activity is measured against various concentrations of MIT (biocide) and BSA (scavenger protein) over a period of 14 days (with absorbance measurements taken at 0, 4, and 14 days) for five different aqueous solutions (represented as columns 1-5—column 6 is a blank).
substance,measurement,setting,value
bovine serum albumin [BSA],"Sarcosine Oxidase Enzyme Absorbance, MEAN of 7-11",[1],1.39
same,"Sarcosine Oxidase Enzyme Absorbance, replicates 7-11",[1],1.428
same,"Sarcosine Oxidase Enzyme Absorbance, MEAN of 7-11",[2],1.38
same,"Sarcosine Oxidase Enzyme Absorbance, replicates 7-11",[2],1.439 and 1.414 and 1.437 and 1.422
same,"Sarcosine Oxidase Enzyme Absorbance, MEAN of 7-11",[3],1.37
same,"Sarcosine Oxidase Enzyme Absorbance, replicates 7-11",[3],1.434
same,"Sarcosine Oxidase Enzyme Absorbance, MEAN of 7-11",[4],1.39
same,"Sarcosine Oxidase Enzyme Absorbance, replicates 7-11",[4],1.43 and 1.428 and 1.409 and 1.458
same,"Sarcosine Oxidase Enzyme Absorbance, MEAN of 7-11",[5],1.41
same,"Sarcosine Oxidase Enzyme Absorbance, replicates 7-11",[5],1.454
same,"Sarcosine Oxidase Enzyme Absorbance, MEAN of 7-11","Day 0, 50 mg/mL BSA only, no MIT (100 ppm MIT row)",1.35
same,% Bias,"Day 0, 50 ppm MIT vs no MIT, 5 mg/mL BSA",2.3%
same,% Bias,"Day 0, 50 ppm MIT vs no MIT, 25 mg/mL BSA",−0.5%
same,% Bias,"Day 0, 50 ppm MIT vs no MIT, 50 mg/mL BSA",−0.1%
same,"Sarcosine Oxidase Enzyme Absorbance, MEAN of 1-5","Day 0, 50 ppm MIT, 5 mg/mL BSA",1.42
same,"Sarcosine Oxidase Enzyme Absorbance, solutions 1-5","Day 0, 50 ppm MIT, 5 mg/mL BSA",1.484 and 1.435 and 1.486 and 1.455 and 1.454
same,"Sarcosine Oxidase Enzyme Absorbance, MEAN of 1-5",[6],1.37
same,"Sarcosine Oxidase Enzyme Absorbance, solutions 1-5",[6],1.385 and 1.39 and 1.401 and 1.423 and 1.433
same,"Sarcosine Oxidase Enzyme Absorbance, MEAN of 1-5",[7],1.41
same,"Sarcosine Oxidase Enzyme Absorbance, solutions 1-5",[7],1.445 and 1.468 and 1.458 and 1.406 and 1.484
same,% Bias,"Day 0, 100 ppm MIT vs no MIT, 5 mg/mL BSA",−0.3%
same,% Bias,"Day 0, 100 ppm MIT vs no MIT, 25 mg/mL BSA",2.0%
same,% Bias,"Day 0, 100 ppm MIT vs no MIT, 50 mg/mL BSA",1.9%
same,"Sarcosine Oxidase Enzyme Absorbance, MEAN of 1-5",[8],1.38
same,"Sarcosine Oxidase Enzyme Absorbance, solutions 1-5",[8],1.41 and 1.418 and 1.423 and 1.42 and 1.425
same,"Sarcosine Oxidase Enzyme Absorbance, MEAN of 1-5",[9],1.41
same,"Sarcosine Oxidase Enzyme Absorbance, solutions 1-5",[9],1.447 and 1.459 and 1.456 and 1.449 and 1.468
same,"Sarcosine Oxidase Enzyme Absorbance, MEAN of 1-5",[10],1.38
same,"Sarcosine Oxidase Enzyme Absorbance, solutions 1-5",[10],1.396 and 1.419 and 1.45 and 1.414 and 1.413
same,"Sarcosine Oxidase Enzyme Absorbance, MEAN of 7-11","Day 4, 5 mg/mL BSA only, no MIT (50 ppm MIT row)",1.41
same,"Sarcosine Oxidase Enzyme Absorbance, MEAN of 7-11","Day 4, 5 mg/mL BSA only, no MIT (100 ppm MIT row)",1.36
same,"Sarcosine Oxidase Enzyme Absorbance, MEAN of 7-11","Day 4, 25 mg/mL BSA only, no MIT (50 ppm MIT row)",1.37
same,"Sarcosine Oxidase Enzyme Absorbance, MEAN of 7-11","Day 4, 25 mg/mL BSA only, no MIT (100 ppm MIT row)",1.36
same,"Sarcosine Oxidase Enzyme Absorbance, MEAN of 7-11","Day 4, 50 mg/mL BSA only, no MIT (50 ppm MIT row)",1.47
same,"Sarcosine Oxidase Enzyme Absorbance, MEAN of 7-11","Day 4, 50 mg/mL BSA only, no MIT (100 ppm MIT row)",1.36
same,% Bias,"Day 4, 50 ppm MIT vs no MIT, 5 mg/mL BSA",1.4%
same,% Bias,"Day 4, 50 ppm MIT vs no MIT, 25 mg/mL BSA",3.0%
same,% Bias,"Day 4, 50 ppm MIT vs no MIT, 50 mg/mL BSA",−7.2%
same,"Sarcosine Oxidase Enzyme Absorbance, MEAN of 1-5","Day 4, 50 ppm MIT, 5 mg/mL BSA",1.43
same,"Sarcosine Oxidase Enzyme Absorbance, solutions 1-5","Day 4, 50 ppm MIT, 5 mg/mL BSA",1.47 and 1.446 and 1.456 and 1.467
same,"Sarcosine Oxidase Enzyme Absorbance, MEAN of 1-5",[11],1.41
same,"Sarcosine Oxidase Enzyme Absorbance, solutions 1-5",[11],1.446 and 1.431 and 1.432 and 1.448 and 1.434
same,"Sarcosine Oxidase Enzyme Absorbance, MEAN of 1-5",[12],1.37
same,"Sarcosine Oxidase Enzyme Absorbance, solutions 1-5",[12],1.429 and 1.415 and 1.37 and 1.398 and 1.381
same,% Bias,"Day 4, 100 ppm MIT vs no MIT, 5 mg/mL BSA",1.5%
same,% Bias,"Day 4, 100 ppm MIT vs no MIT, 25 mg/mL BSA",1.0%
same,% Bias,"Day 4, 100 ppm MIT vs no MIT, 50 mg/mL BSA",1.0%
same,"Sarcosine Oxidase Enzyme Absorbance, MEAN of 1-5",[13],1.38
same,"Sarcosine Oxidase Enzyme Absorbance, solutions 1-5",[13],1.404 and 1.416 and 1.435 and 1.42
same,"Sarcosine Oxidase Enzyme Absorbance, MEAN of 1-5",[14],1.37
same,"Sarcosine Oxidase Enzyme Absorbance, solutions 1-5",[14],1.42 and 1.392 and 1.415 and 1.383 and 1.4
same,"Sarcosine Oxidase Enzyme Absorbance, MEAN of 1-5",[15],1.38
same,"Sarcosine Oxidase Enzyme Absorbance, solutions 1-5",[15],1.397 and 1.396 and 1.413 and 1.425 and 1.412
same,"Sarcosine Oxidase Enzyme Absorbance, MEAN of 7-11","Day 14, 5 mg/mL BSA only, no MIT (50 ppm MIT row)",1.39
same,"Sarcosine Oxidase Enzyme Absorbance, MEAN of 7-11","Day 14, 5 mg/mL BSA only, no MIT (100 ppm MIT row)",1.42
same,"Sarcosine Oxidase Enzyme Absorbance, MEAN of 7-11","Day 14, 25 mg/mL BSA only, no MIT (50 ppm MIT row)",1.38
same,"Sarcosine Oxidase Enzyme Absorbance, MEAN of 7-11","Day 14, 25 mg/mL BSA only, no MIT (100 ppm MIT row)",1.40
same,"Sarcosine Oxidase Enzyme Absorbance, MEAN of 7-11","Day 14, 50 mg/mL BSA only, no MIT (50 ppm MIT row)",1.37
same,"Sarcosine Oxidase Enzyme Absorbance, MEAN of 7-11","Day 14, 50 mg/mL BSA only, no MIT (100 ppm MIT row)",1.44
same,% Bias,"Day 14, 50 ppm MIT vs no MIT, 5 mg/mL BSA",−1.0%
same,% Bias,"Day 14, 50 ppm MIT vs no MIT, 25 mg/mL BSA",−0.2%
same,% Bias,"Day 14, 50 ppm MIT vs no MIT, 50 mg/mL BSA",1.5%
same,"Sarcosine Oxidase Enzyme Absorbance, MEAN of 1-5",[16],1.37
same,"Sarcosine Oxidase Enzyme Absorbance, solutions 1-5",[16],1.413 and 1.372 and 1.41 and 1.423 and 1.437
same,"Sarcosine Oxidase Enzyme Absorbance, MEAN of 1-5",[17],1.38
same,"Sarcosine Oxidase Enzyme Absorbance, solutions 1-5",[17],1.413 and 1.41 and 1.422 and 1.427
same,"Sarcosine Oxidase Enzyme Absorbance, MEAN of 1-5",[18],1.39
same,"Sarcosine Oxidase Enzyme Absorbance, solutions 1-5",[18],1.434 and 1.444 and 1.427 and 1.431 and 1.432
same,% Bias,"Day 14, 100 ppm MIT vs no MIT, 5 mg/mL BSA",0.3%
same,% Bias,"Day 14, 100 ppm MIT vs no MIT, 25 mg/mL BSA",−0.2%
same,% Bias,"Day 14, 100 ppm MIT vs no MIT, 50 mg/mL BSA",−0.8%
same,"Sarcosine Oxidase Enzyme Absorbance, MEAN of 1-5",[19],1.43
same,"Sarcosine Oxidase Enzyme Absorbance, solutions 1-5",[19],1.479 and 1.506 and 1.389 and 1.39 and 1.577
same,"Sarcosine Oxidase Enzyme Absorbance, MEAN of 1-5",[20],1.40
same,"Sarcosine Oxidase Enzyme Absorbance, solutions 1-5",[20],1.422 and 1.404 and 1.428 and 1.458 and 1.477
same,"Sarcosine Oxidase Enzyme Absorbance, MEAN of 1-5",[21],1.43
same,"Sarcosine Oxidase Enzyme Absorbance, solutions 1-5",[21],1.442 and 1.477 and 1.456 and 1.492 and 1.478
same,absorbance of the sarcosine oxidase enzyme compared to samples containing 0 mg/mL of BSA,"days 4 and 14, 5, 25 and 50 mg/mL BSA, with MIT",increased absorbance
